According to ChEMBL document CHEMBL1268973, “Flavonoids from Dracocephalum tanguticum and their cardioprotective effects against doxorubicin-induced toxicity in H9c2 cells” (Bioorg Med Chem Lett, 2010):
Calls of active or inactive are those of the source. The rule behind the calls is not given here.

Columns and labels:
[1] = Antioxidant activity assessed as ferrous ion chelating activity; format: functional
[2] = test system: Radical scavenging activity; test: Antioxidant activity of the compound assessed as DPPH radical scavenging activity after 30 mins; format: functional
[3] = Antioxidant activity assessed as ABTS radical scavenging activity; format: functional
H9c2 [4] = test: Cytoprotective activity against doxorubicin-induced cytotoxicity in rat H9c2 cells assessed as cell viability after 24 hrs by MTT assay; format: functional, cell-based
H9c2 [5] = test: Cytoprotective activity against rat H9c2 cells assessed as reduction in doxorubicin-induced LDH release at 5 to 20 uM after 24 hrs; format: functional, cell-based
H9c2 [6] = test: Cytoprotective activity against rat H9c2 cells assessed as inhibition of doxorubicin-induced morphological changes at 10 to 40 uM after 24 hrs; format: functional, cell-based
H9c2 [7] = test: Cytoprotective activity against rat H9c2 cells assessed as inhibition of doxorubicin-induced intracellular ROS elevation at 5 to 20 uM after 24 hrs; format: functional, cell-based
H9c2 [8] = test: Cytoprotective activity against rat H9c2 cells assessed as inhibition of doxorubicin-induced intracellular Ca2+ elevation; format: functional, cell-based
H9c2 [9] = test: Cytoprotective activity against rat H9c2 cells assessed as reduction in doxorubicin-induced CK release at 5 to 20 uM after 24 hrs; format: functional, cell-based
H9c2 [10] = test: Effect on doxorubicin-induced total apoptosis in rat H9c2 cells at 20 uM; format: functional, cell-based
H9c2 [11] = test: Cytoprotective activity against in rat H9c2 cells assessed as inhibition of doxorubicin-induced cell death after 24 hrs by MTT assay; format: functional, cell-based
[12] = Rattus norvegicus, H9c2, 24 h, read-out: EC50

SMILES	EC50 [1] [µM]	EC50 [2] [µM]	EC50 [3] [µM]	EC50 (H9c2 [4]; [12]) [µM]	EC50 (H9c2 [4]; h9c2)	other results
O=C1C[C@@H](c2ccc(O)c(O)c2)Oc2cc(O)cc(O)c21 [ERIODICTYOL]	8370	98.8	1.15	25.5		
COc1cc2oc(-c3ccc(O)cc3)cc(=O)c2c(O)c1O[C@@H]1O[C@H](CO)[C@@H](O)[C@H](O)[C@H]1O		159	581		Not Active	
O=C1C[C@@H](c2ccc(O)c(O)c2)Oc2cc(O[C@@H]3O[C@H](CO)[C@@H](O)[C@H](O)[C@H]3O)cc(O)c21	213000	15.6	7.26	38.2		
O=C1C[C@@H](c2ccc(O)cc2)Oc2cc(O[C@@H]3O[C@H](CO)[C@@H](O)[C@H](O)[C@H]3O)cc(O)c21 [PRUNIN]		40.6	18.1		Not Active	
O=c1cc(-c2ccc(O)c(O)c2)oc2cc(O)cc(O)c12 [LUTEOLIN]	12000	6.12	105	5.53		
COc1cc2oc(-c3ccc(O)c(O)c3)cc(=O)c2c(O)c1O[C@@H]1O[C@H](COC(C)=O)[C@@H](O)[C@H](O)[C@H]1O	1130	95.2	76.2	19.1		
O=c1cc(-c2ccc(O)c(O)c2)oc2cc(O[C@@H]3O[C@H](CO)[C@@H](O)[C@H](O)[C@H]3O)cc(O)c12 [GALUTEOLIN]	1100	3.94	56.5	5.04		Activity (H9c2 [5]): Active; Activity (H9c2 [6]): Active; Activity (H9c2 [7]): Active; Activity (H9c2 [8]): Dose-dependent effect; Activity (H9c2 [9]): Active; Activity (H9c2 [10]): inactive; Activity (H9c2 [11]): inactive
O=C1C[C@@H](c2cc(O)cc(O)c2)Oc2cc(O)cc(O)c21	161000	32.1	16.3		Not Active	
COc1cc2oc(-c3ccc(O)c(O[C@@H]4O[C@H](CO)[C@@H](O)[C@H](O)[C@H]4O)c3)cc(=O)c2c(O)c1O	60	31	15.7	13.1		
COc1ccc(-c2cc(=O)c3c(O)cc(O[C@@H]4O[C@H](CO)[C@@H](O)[C@H](O)[C@H]4O)cc3o2)cc1 [TILIANINE]		95	400		Not Active	
O=c1cc(-c2ccc(O)cc2)oc2cc(O[C@@H]3O[C@H](CO)[C@@H](O)[C@H](O)[C@H]3O)cc(O)c12 [APIGETRIN]		20.4	13.1	12.3		
COc1cc2oc(-c3ccc(O)cc3)cc(=O)c2c(O)c1O[C@@H]1O[C@H](COC(C)=O)[C@@H](O)[C@H](O)[C@H]1O	4510	113	12.3		Not Active	
CCOC(=O)[C@H]1O[C@@H](Oc2cc(O)c3c(=O)cc(-c4ccc(O)c(O)c4)oc3c2)[C@H](O)[C@@H](O)[C@@H]1O	3310	13.2	87.8	6.34		
O=C1C[C@@H](c2ccc(O)cc2)Oc2cc(O)cc(O)c21 [NARINGENIN]	21400	72.3	13.5		Not Active	
COc1cc2oc(-c3ccc(O)c(O)c3)cc(=O)c2c(O)c1O[C@@H]1O[C@H](CO)[C@@H](O)[C@H](O)[C@H]1O	27600	81.2	86.1		Not Active	
COc1cc2oc(-c3ccc(O)cc3)cc(=O)c2c(O)c1O		20	13.4		Not Active	
